Series [1] can be described thus: Blood glucose after an oral glucose tolerance test in fasted male mice (FIG. 3C). The following applies: single dose. It counts as in vivo. Here is the method:
(§1) (One-way ANOVA with Dunnett's test vs. vehicle; *=p<0.01; **=p<0.0001). From left to right along x-axis in FIG. 3B: vehicle, 30 mg/kg BBO, 100 mg/kg BBO, 300 mg/kg BBO, 50 mg/kg alpelisib. […] (One-way ANOVA with Tukey's multiple comparisons test vs all other groups: *p<0.0001) (IV=intravenous administration; PO=per os or oral administration; ng/mL=nanograms per milliliters; mg/kg=milligrams per kilogram; mg/dL=milligrams per deciliter; min=minutes; CDX=cell line derived xenograft; QD=quaque die or once daily, PK=pharmacokinetics)

Series [2] is described as follows: Insulin levels in fed male mice (FIG. 3D). Format: in vivo. The following applies: single oral dose 50 mg/kg, 240 minutes after administration. Here is the method: as §1
In another series the test system is pAKT in BT474 cells. Description: Cell-based pAKT HTRF assay in BT474 cells. The note with it: Homo sapiens, BT-474; BT474 cell line; read-out: pAKT (IC50). In a few lines:
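The HTRF signal (excitation 320 nm, emission 615 nm) came from d2/Eu Cryptate antibodies added to lysates and incubated 4–24 h at room temperature. Those lysates were taken from cells treated for 4 hr with compound, top concentration 3 μM, in 0.25% DMSO.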
Background: Time-resolved FRET reads energy transfer from a long-lived donor to a nearby acceptor.

A further series has as its system BT474 cell line. Nature of the series: Cell viability in BT474 cell line. It counts as cell-based. The note with it: Homo sapiens, BT-474. From the text:
Table 8 compares the pAKT IC50 and cell viability for Compound 58, a PI3Kα breaker, and the PI3Kα inhibitor alpelisib in the breast cancer estrogen receptor positive (ER+) BT474 cell line, which harbors a HER2 amplification and PIK3CA linker domain K111N mutation. […] Importantly, the potency on pAKT translates well into a loss in cellular viability.

Series [3] has as its system pAKT (Ser473) in BT474 CDX tumors. Description: Pharmacodynamic activity (tumor pAKT) in BT474 cell line-derived xenograft model. The note with it: NOD/SCID mice, 4 hours after one oral dose of 50 mg/kg. It counts as in vivo, mice. Here is the method: An in vivo study was conducted to evaluate the pharmacodynamic activity of Compound 58 in the breast cancer estrogen receptor positive (ER+) BT474 cell line-derived xenograft (CDX) model, which harbors a HER2 amplification and PIK3CA linker domain K111N mutation (FIG. 3B). NOD/SCID mice were implanted subcutaneously with BT474 human tumor cells and were injected subcutaneously with estradiol benzoate twice a week to support tumor growth. When tumors reached a mean size of 286 mm^3, mice were randomized into treatment groups (4 mice per group) and administered one oral dose of vehicle, 30 mg/kg Compound 58, 100 mg/kg Compound 58, 300 mg/kg Compound 58, or 50 mg/kg alpelisib. Alpelisib is a PI3Kα kinase domain inhibitor and was included as a positive control. Whole blood and tumors were collected 4 hours post the dose. Blood was processed to plasma and compound concentrations were determined with LC-MS/MS. Tumors were processed into lysates and pAKT levels were measured using the Meso Scale Diagnostics (MSD) multi-spot pAKT (Ser473)/total AKT assay whole cell lysate kit.

A short description of series [4]: Oral glucose tolerance test in fasted mice. Format: in vivo. The following applies: fasted male C57/BL6J mice, one oral dose 50 mg/kg, 2 g/kg glucose 1 h later, 15-120 minutes. Here is the method:
Two in vivo studies were performed to determine whether Compound 58 administration induces hyperglycemia and hyperinsulinemia in mice like the PI3Kα kinase domain inhibitor alpelisib (FIGS. 3C and 3D). In the first study, an oral glucose tolerance test was performed in fasted mice following the administration of compounds to determine if Compound 58 induces hyperglycemia (FIG. 3C). Male C57/BL6J mice were fasted overnight for 16 hours and approximately 5 μL of whole blood was collected via tail snip to measure fasted blood glucose levels using a glucometer. Mice were randomized into three groups (8 mice per group) based on blood glucose levels and then administered one oral dose of vehicle, 50 mg/kg alpelisib, or 300 mg/kg Compound 58. One hour later, blood was collected for a glucose measurement and then a single oral dose of a 2 g/kg glucose solution was administered. Blood glucose measurements were performed at 15, 30, 60, 90, and 120 minutes after the administration of the glucose solution.

Series [5] in a line: Serum insulin levels in fed mice. It counts as in vivo. The note with it: fed male C57/BL6J mice, 240 minutes after one oral dose 50 mg/kg. Here is the method:
In the second study, serum insulin levels were measured in fed mice following administration of compounds to determine if Compound 58 induces hyperinsulinemia like the PI3Kα kinase domain inhibitor alpelisib (FIG. 3D). Approximately 5 μL of whole blood was collected via tail snip from male C57/BL6J mice and used to measure fed blood glucose levels using a glucometer. Mice were randomized into three groups (8 mice per group) based on blood glucose levels and then administered one oral dose of vehicle, 50 mg/kg alpelisib, or 300 mg/kg Compound 58. 240 minutes later, whole blood was collected and processed to serum and insulin levels were measured using an ELISA.

The conditions of series [6]: Phase III clinical trial; cited from earlier work.

Data on one compound can be found in US20250230138A1, “COMPOUNDS HAVING A T-STRUCTURE FORMED BY AT LEAST FOUR CYCLES FOR USE IN THE TREATMENT OF CANCER AND OTHER INDICATIONS” (TheRas, Inc., priority 2022, published 2025).

SMILES strings stand for the structures.

Regarding `Cc1nc(NC(=O)N2CCC[C@H]2C(N)=O)sc1-c1ccnc(C(C)(C)C(F)(F)F)c1` [alpelisib, reference compound], in series [1], the “blood glucose levels (hyperglycemia)” value is “Hyperglycemia is observed”. Moreover, the “insulin levels (hyperinsulinemia)” value in series [2] was “Hyperinsulinemia is observed”. Besides, the IC50 – broadly, the concentration that gives 50% inhibition – in the series on pAKT in BT474 cells was 169 nM; in the series with BT474 cell line it was 744 nM. In series [3], this compound came in with a pAKT inhibited of 97%. For the same compound, the “Blood glucose levels after glucose dose (oral glucose tolerance test)” value in series [4] is recorded as “significantly elevated”. The Serum insulin levels entry in series [5] is “significantly elevated”. Further, in series [6], the “patients in whom hyperglycemia was observed” value is 65%.
